Test results reported in article PMC11490992 (Microbial Cell Factories, 2024).
Converted amounts (≈) assume the structure as drawn.

Molecular target: α-glucosidase
Assay: in vitro α-glucosidase inhibition assay, triplicate, serial dilutions
Type: biochemical

- IC50 (μg/mL)^a: 86.21 µg/mL (≈ 384 µM)
SMILES: CC(C)=CCc1ccc2c(CC#N)c[nH]c2c1 [compound 2, 3-cyanomethyl-6-prenylindole]
